Measured values as given in paper PMC8175350, “Drug repurposing screens identify chemical entities for the development of COVID-19 interventions” (Nature Communications, 2021).
Several values for one entry are separate records, joined by “and”; a condition that tells them apart may be missing. Equal values may be shown once. Read-outs that look alike come from different tables or passages of the source.

Legend:
SARS-CoV-2 [1] = format: cell-based
SARS-CoV-2 [2] = assay: microbe, parasite or virus in culture; format: cell-based; conditions: for EC50: Severe acute respiratory syndrome coronavirus 2, HeLa-ACE2, unrounded geometric mean, read-out: HeLa-ACE2 CoV-2 EC50 GeoMean; for Emax: Severe acute respiratory syndrome coronavirus 2, HeLa-ACE2, 24 h, curve-fit effect at infinite concentration, average, read-out: HeLa-ACE2 CoV-2 Sinf Average
Calu-3 cells [3] = assay: cells; conditions: Homo sapiens; for Emax: Calu-3, 48 h, read-out: Calu-3 cell count Sinf Average; for EC50: Calu-3, read-out: Calu-3 cell count EC50 GeoMean, unrounded geometric mean
[4] = Uninfected HeLa-ACE2 24 h live/dead cytotoxicity counter screen; format: cell-based, human; conditions: human, uninfected HeLa-ACE2 cells
HeLa-ACE2 cells [5] = assay: as above; format: cell-based, human; conditions: curve-fit effect at infinite concentration, average
HeLa-ACE2 cells [6] = assay: cells; conditions: Homo sapiens; for Emax: HeLa-ACE2, 24 h, read-out: HeLa-ACE2 cell count Sinf Average; for EC50: HeLa-ACE2, read-out: HeLa-ACE2 cell count EC50 GeoMean, unrounded geometric mean
SARS-CoV-2 [7] = assay: microbe, parasite or virus in culture; format: cell-based; conditions: for Emax: Severe acute respiratory syndrome coronavirus 2, Calu-3, 48 h, curve-fit effect at infinite concentration, average, read-out: Calu-3 CoV-2 Sinf Average; for EC50: Severe acute respiratory syndrome coronavirus 2, Calu-3, unrounded geometric mean, read-out: Calu-3 CoV-2 EC50 GeoMean
Calu-3 cells [8] = assay: Uninfected Calu-3 48 h Cell-Titer Glo cytotoxicity counter screen; conditions: curve-fit effect at infinite concentration, average
[9] = as above; conditions: human, uninfected Calu-3 cells, Calu-3 uninfected cytotoxicity CC50 GeoMean, unrounded geometric mean
in vitro = conditions: human, Calu-3 uninfected cytotoxicity CC50 GeoMean; for CC50: unrounded geometric mean
Calu-3 cells [10] = tested on: Calu-3 cells
[11] = uninfected cells, Fig. 2b group, read-out: HeLa-ACE2 CC50
[12] = unrounded geometric mean, read-out: HeLa-ACE2 uninfected cytotoxicity CC50 GeoMean

Compound	EC50 (SARS-CoV-2 [2]) [nM]	Emax (Calu-3 cells [3]) [%]	EC50 (Calu-3 cells [3]) [nM]	CC50 at 24 h [4, 11] [nM]	CC50 at 24 h [4, 12] [nM]	HeLa-ACE2 uninfected cytotoxicity Sinf Average (HeLa-ACE2 cells [5]) [%]	Emax (HeLa-ACE2 cells [6]) [%]	EC50 (HeLa-ACE2 cells [6]) [µM]	Emax (SARS-CoV-2 [7]) [%]	EC50 (SARS-CoV-2 [7]) [nM]	Calu-3 uninfected cytotoxicity Sinf Average (Calu-3 cells [8]) [%]	CC50 (in vitro) [µM]	Emax (SARS-CoV-2 [2]) [%]	further results
Nc1nc(N)c2nc(CCc3ccc(C(=O)N[C@@H](CCC(=O)O)C(=O)O)cc3)cnc2n1 [10-deazaaminopterin]	–	–	–	–	–	–	–	–	–	–	–	–	–	interaction with remdesivir (SARS-CoV-2 [1]; ZIP model): synergistic (synergistic effect: δ >10); dose-response point, normalized infected cells (SARS-CoV-2 [1]; alone, Concentration [uM] -9.01818): 8.312 and 15.4845 and 9.998; maximal efficacy (SARS-CoV-2 [1]; compound alone): 40%; maximal efficacy (SARS-CoV-2 [1]; with EC2 of remdesivir): ~65%; maximal efficacy (SARS-CoV-2 [1]; with EC24 of remdesivir): > 80%
COCc1c(C(C)C)nc(C(C)C)c(/C=C/[C@@H](O)C[C@@H](O)CC(=O)O)c1-c1ccc(F)cc1 [Cerivastatin sodium]	> 9590	89	936	≤ 3000	308	-74	100	> 9.59	63	348	-100	–	–	CC50 at 48 h [9]: > 29.9 µM
CC[C@@H]1/C=C/C=C/C[C@H](C)[C@@H](O)[C@](C)(O)C(=O)[C@H](C)[C@@H](O)[C@H](C)C(=O)[C@H](C)[C@@H](O)[C@H](C)/C=C/C(=O)O[C@H]2[C@@H](C)[C@@H](CC1)O[C@]1(O[C@H](C[C@H](C)O)[C@H](C)CC1=O)[C@@H]2C [Oligomycin B]	> 9590	50	> 311	–	22000	-100	100	> 8.16	93	< 5.39	-89	> 24.5	–	–
CCCCCCCCCCCCCC(=O)O[C@@H]1[C@@H](C)[C@@]2(O)[C@@H](C=C(CO)C[C@]3(O)C(=O)C(C)=C[C@@H]23)[C@@H]2C(C)(C)[C@]12OC(C)=O [Phorbol 12-myristate 13-acetate]	–	100	> 9980	≤ 3000	> 201	-58	–	> 9.59	59	16.2	-100	22.5	40	–
C=C(C)[C@]12C[C@@H](C)[C@@]34O[C@](Cc5ccccc5)(O[C@@H]1[C@@H]3C=C(COC(=O)Cc1ccc(O)c(OC)c1)C[C@]1(O)C(=O)C(C)=C[C@@H]41)O2 [Resiniferatoxin]	> 1300	75	> 2870	–	7170	-100	100	> 8.34	80	903	-100	17.3	75	–
Cn1c(C#N)ccc1-c1ccc2c(c1)C(C)(C)OC(=S)N2 [Tanaproget]	141	98	> 9980	≤ 3000	128	-50	100	> 9.59	87	2440	-100	–	49	uninfected Calu-3 CC50 (Calu-3 cells [10]): > 19.278 ×÷ 2.07 (n=3) μM; CC50 at 48 h (in vitro): > 19.3 µM
N6-isopentenyladenosine [Riboprine]	–	–	–	–	–	–	–	–	–	–	–	–	–	interaction with remdesivir (SARS-CoV-2 [1]): synergistic (key: additive: Additive effect: -10< δ <10; synergistic effect: δ >10; antagonistic eff ect: δ <10); maximal efficacy (SARS-CoV-2 [1]): 100%
